Measurements: patent US10597388B2, “Pyridazinone herbicides” (FMC CORPORATION, priority 2014, dated 2020)

What was measured:
Experiment in all cases: Test D controlled growth environment herbicide test, pre- and postemergence
Assay type in all cases: in vivo
[1] = system: chickweed (common chickweed, Stellaria media)
Method in brief: (§1)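 Pre-emergence: seeds sown in silt loam soil were sprayed with compound in a non-phytotoxic solvent mix containing surfactant. Post-emergence: plants at 2 to 18 cm (1- to 4-leaf stage) in peat moss/vermiculite medium got the same formulation. Visual 0–100 rating versus controls after 14 to 21 d.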

[2] = system: ryegrass, Italian (Italian ryegrass, Lolium multiflorum)
Method in brief: as §1

[3] = system: wheat, winter (winter wheat, Triticum aestivum)
Method in brief: as §1

[4] = system: deadnettle (henbit deadnettle, Lamium amplexicaule)
Method in brief: as §1

[5] = system: blackgrass (Alopecurus myosuroides)
Method in brief: as §1

[6] = system: pigweed (Amaranthus retroflexus)
Method in brief: as §1

[7] = system: radish, wild (wild radish, Raphanus raphanistrum)
Method in brief: as §1

[8] = system: field violet (Viola arvensis)
Method in brief: as §1

[9] = system: oilseed rape (Brassica napus)
Method in brief: as §1

[10] = system: wheat, spring (spring wheat, Triticum aestivum)
Method in brief: as §1

[11] = system: Russian thistle (Salsola kali)
Method in brief: as §1

[12] = system: field poppy (Papaver rhoeas)
Method in brief: as §1

[13] = system: windgrass (Apera spica-venti)
Method in brief: as §1

[14] = Postemergence, 31 g ai/ha, scale 0 to 100 (0 no effect, 100 complete control)
[15] = Postemergence, 125 g ai/ha, visual rating on scale 0 (no effect) to 100 (complete control), 14 to 21 d
[16] = Postemergence, 250 g ai/ha, scale 0 to 100 (0 no effect, 100 complete control)
[17] = Preemergence, 62 g ai/ha, scale 0 to 100 (0 no effect, 100 complete control)
[18] = Preemergence, 125 g ai/ha, scale 0 to 100 (0 no effect, 100 complete control)
[19] = Preemergence, 250 g ai/ha, scale 0 to 100 (0 no effect, 100 complete control)
[20] = postemergence, 62 g ai/ha, scale 0 to 100, 0 no effect, 100 complete control

Compound: COc1nn(C)c(=O)c(-c2c(C)ccc3ccccc23)c1OC(=O)OC(C)C [Compound 36]
- Chickweed plant response rating [1, 14]: 100
- Plant response rating, Chickweed [1, 15]: 100
- Plant response rating, Chickweed [1, 16]: 100
- Plant response rating (scale of 0 to 100), Chickweed ([1]; Preemergence, 31 g ai/ha): 95
- Plant response rating, Chickweed [1, 17]: 95
- Plant response rating, Chickweed [1, 18]: 100
- Plant response rating, Chickweed [1, 19]: 100
- Plant response rating, Chickweed [1, 20]: 100
- Ryegrass, Italian plant response rating [2, 14]: 75
- Plant response rating, Ryegrass, Italian [2, 15]: 90
- Plant response rating, Ryegrass, Italian [2, 16]: 90
- Plant response rating (scale of 0 to 100), Ryegrass, Italian ([2]; Preemergence, 31 g ai/ha): 20
- Plant response rating, Ryegrass, Italian [2, 17]: 65
- Plant response rating, Ryegrass, Italian [2, 18]: 70
- Plant response rating, Ryegrass, Italian [2, 19]: 70
- Plant response rating, Ryegrass, Italian [2, 20]: 80
- Wheat, Winter plant response rating [3, 14]: 0
- Plant response rating, Wheat, Winter [3, 15]: 5
- Plant response rating, Wheat, Winter [3, 16]: 15
- Plant response rating (scale of 0 to 100), Wheat, Winter ([3]; Preemergence, 31 g ai/ha): 0
- Plant response rating, Wheat, Winter [3, 17]: 0
- Plant response rating, Wheat, Winter [3, 18]: 0
- Plant response rating, Wheat, Winter [3, 19]: 0
- Plant response rating, Wheat, Winter [3, 20]: 0
- Deadnettle plant response rating [4, 14]: 80
- Plant response rating, Deadnettle [4, 15]: 100
- Plant response rating, Deadnettle [4, 16]: 100
- Plant response rating (scale of 0 to 100), Deadnettle ([4]; Preemergence, 31 g ai/ha): 0
- Plant response rating, Deadnettle [4, 17]: 0
- Plant response rating, Deadnettle [4, 18]: 50
- Plant response rating, Deadnettle [4, 19]: 85
- Plant response rating, Deadnettle [4, 20]: 100
- Blackgrass plant response rating [5, 14]: 25
- Plant response rating, Blackgrass [5, 15]: 45
- Plant response rating, Blackgrass [5, 16]: 70
- Plant response rating (scale of 0 to 100), Blackgrass ([5]; Preemergence, 31 g ai/ha): 15
- Plant response rating, Blackgrass [5, 17]: 30
- Plant response rating, Blackgrass [5, 18]: 35
- Blackgrass plant response rating [5, 19]: 50
- Plant response rating, Blackgrass [5, 20]: 35
- Pigweed plant response rating [6, 14]: 100
- Plant response rating, Pigweed [6, 15]: 100
- Plant response rating, Pigweed [6, 16]: 100
- Plant response rating (scale of 0 to 100), Pigweed ([6]; Preemergence, 31 g ai/ha): 55
- Plant response rating, Pigweed [6, 17]: 75
- Plant response rating, Pigweed [6, 18]: 100
- Plant response rating, Pigweed [6, 19]: 100
- Plant response rating, Pigweed [6, 20]: 100
- Radish, Wild plant response rating [7, 14]: 80
- Plant response rating, Radish, Wild [7, 15]: 100
- Plant response rating, Radish, Wild [7, 16]: 100
- Plant response rating (scale of 0 to 100), Radish, Wild ([7]; Preemergence, 31 g ai/ha): 0
- Plant response rating, Radish, Wild [7, 17]: 0
- Plant response rating, Radish, Wild [7, 18]: 50
- Plant response rating, Radish, Wild [7, 19]: 70
- Plant response rating, Radish, Wild [7, 20]: 90
- Field Violet plant response rating [8, 14]: 70
- Plant response rating, Field Violet [8, 15]: 90
- Plant response rating, Field Violet [8, 16]: 90
- Plant response rating (scale of 0 to 100), Field Violet ([8]; Preemergence, 31 g ai/ha): 15
- Plant response rating, Field Violet [8, 17]: 10
- Plant response rating, Field Violet [8, 18]: 70
- Plant response rating, Field Violet [8, 19]: 95
- Plant response rating, Field Violet [8, 20]: 85
- Oilseed Rape plant response rating [9, 14]: 75
- Plant response rating, Oilseed Rape [9, 15]: 95
- Plant response rating, Oilseed Rape [9, 16]: 100
- Plant response rating (scale of 0 to 100), Oilseed Rape ([9]; Preemergence, 31 g ai/ha): 0
- Plant response rating, Oilseed Rape [9, 17]: 0
- Plant response rating, Oilseed Rape [9, 18]: 55
- Plant response rating, Oilseed Rape [9, 19]: 65
- Plant response rating, Oilseed Rape [9, 20]: 85
- Wheat, Spring plant response rating [10, 14]: 0
- Plant response rating, Wheat, Spring [10, 15]: 0
- Plant response rating, Wheat, Spring [10, 16]: 10
- Plant response rating (scale of 0 to 100), Wheat, Spring ([10]; Preemergence, 31 g ai/ha): 0
- Plant response rating, Wheat, Spring [10, 17]: 0
- Plant response rating, Wheat, Spring [10, 18]: 0
- Plant response rating, Wheat, Spring [10, 19]: 30
- Plant response rating, Wheat, Spring [10, 20]: 0
- Russian Thistle plant response rating [11, 14]: 80
- Plant response rating, Russian Thistle [11, 15]: 85
- Plant response rating, Russian Thistle [11, 16]: 90
- Plant response rating (scale of 0 to 100), Russian Thistle ([11]; Preemergence, 31 g ai/ha): 0
- Plant response rating, Russian Thistle [11, 17]: 15
- Plant response rating, Russian Thistle [11, 18]: 10
- Plant response rating, Russian Thistle [11, 19]: 15
- Plant response rating, Russian Thistle [11, 20]: 85
- Field Poppy plant response rating [12, 14]: 60
- Plant response rating, Field Poppy [12, 15]: 90
- Plant response rating, Field Poppy [12, 16]: 100
- Plant response rating, Field Poppy [12, 17]: 50
- Plant response rating, Field Poppy [12, 18]: 70
- Plant response rating, Field Poppy [12, 19]: 100
- Plant response rating, Field Poppy [12, 20]: 70
- Windgrass plant response rating [13, 14]: 40
- Plant response rating, Windgrass [13, 15]: 70
- Plant response rating, Windgrass [13, 16]: 75
- Plant response rating (scale of 0 to 100), Windgrass ([13]; Preemergence, 31 g ai/ha): 0
- Plant response rating, Windgrass [13, 17]: 5
- Plant response rating, Windgrass [13, 18]: 5
- Plant response rating, Windgrass [13, 19]: 65
- Plant response rating, Windgrass [13, 20]: 50
